Test results: ChEMBL document CHEMBL5380814, “Targeting Receptor-Interacting Protein Kinase 1 by Novel Benzothiazole Derivatives: Treatment of Acute Lung Injury through the Necroptosis Pathway” (J Med Chem, 2023)
The source made the active and inactive calls. No cut-off for these calls is given here.

How the values were obtained:
HT-29 [1] = assay: Cytotoxicity against human HT-29 cells incubated at 100 uM for 16 to 24 hrs measured by cell-titre glo luminescent cell viability assay; type: functional, cell-based; conditions: time 16-24 hrs
HT-29 [2] = assay: Anti-necroptotic activity in human HT-29 cells assessed as inhibition of human TNFalpha/Smac mimetic/Z-VAD-FMK induced necroptosis preincubated with compound for 16 to 24 hrs followed by TSZ stimulation for 12 hrs measured by cell-titre glo luminescent cell viability assay; type: functional, cell-based
HT-29 [3] = assay: Anti-necroptotic activity in human HT-29 cells assessed as inhibition of human TNFalpha/Smac mimetic/Z-VAD-FMK induced necroptosis preincubated with compound followed by TSZ stimulation for 12 hrs; type: functional, cell-based
HT-29 [4] = assay: Cytotoxicity against human HT-29 cells incubated for 16 to 24 hrs measured by cell-titre glo luminescent cell viability assay; type: functional; conditions: time 16-24 hrs
[5] = target: T1, Receptor-interacting serine/threonine-protein kinase 1 (Homo sapiens, UniProt Q13546); assay: Binding affinity to human wildtype full length RIPK1 (M1 to K305 residues) expressed in bacterial expression system assessed as dissociation constant by kinome scan kd select based qPCR analysis
T1 sequence (Q13546 whole entry): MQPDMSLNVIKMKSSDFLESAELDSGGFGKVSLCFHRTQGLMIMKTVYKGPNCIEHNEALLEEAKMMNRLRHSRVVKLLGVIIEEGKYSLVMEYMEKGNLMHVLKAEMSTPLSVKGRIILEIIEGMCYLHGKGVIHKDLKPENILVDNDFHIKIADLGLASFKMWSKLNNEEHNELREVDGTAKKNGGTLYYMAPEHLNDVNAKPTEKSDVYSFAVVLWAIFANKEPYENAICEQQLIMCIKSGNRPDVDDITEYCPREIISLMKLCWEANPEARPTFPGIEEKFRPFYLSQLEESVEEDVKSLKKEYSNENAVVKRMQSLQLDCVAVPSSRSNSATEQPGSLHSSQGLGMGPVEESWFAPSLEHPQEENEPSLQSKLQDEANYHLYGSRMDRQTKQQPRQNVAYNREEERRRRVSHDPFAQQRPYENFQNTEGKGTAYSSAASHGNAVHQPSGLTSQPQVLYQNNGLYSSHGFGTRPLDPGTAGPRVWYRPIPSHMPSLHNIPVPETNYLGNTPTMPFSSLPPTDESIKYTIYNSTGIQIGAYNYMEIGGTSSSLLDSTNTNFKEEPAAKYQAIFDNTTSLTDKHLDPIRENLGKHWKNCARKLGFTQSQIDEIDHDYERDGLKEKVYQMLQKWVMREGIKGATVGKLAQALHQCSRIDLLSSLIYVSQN

[6] = target: Receptor-interacting serine/threonine-protein kinase 3 (Homo sapiens, UniProt Q9Y572); assay: Binding affinity to human wildtype full length RIPK3 (M1 to Q307 residues) expressed in bacterial expression system assessed as dissociation constant by kinome scan kd select based qPCR analysis
Receptor-interacting serine/threonine-protein kinase 3, sequence (Q9Y572 whole entry, the tested form may be a part): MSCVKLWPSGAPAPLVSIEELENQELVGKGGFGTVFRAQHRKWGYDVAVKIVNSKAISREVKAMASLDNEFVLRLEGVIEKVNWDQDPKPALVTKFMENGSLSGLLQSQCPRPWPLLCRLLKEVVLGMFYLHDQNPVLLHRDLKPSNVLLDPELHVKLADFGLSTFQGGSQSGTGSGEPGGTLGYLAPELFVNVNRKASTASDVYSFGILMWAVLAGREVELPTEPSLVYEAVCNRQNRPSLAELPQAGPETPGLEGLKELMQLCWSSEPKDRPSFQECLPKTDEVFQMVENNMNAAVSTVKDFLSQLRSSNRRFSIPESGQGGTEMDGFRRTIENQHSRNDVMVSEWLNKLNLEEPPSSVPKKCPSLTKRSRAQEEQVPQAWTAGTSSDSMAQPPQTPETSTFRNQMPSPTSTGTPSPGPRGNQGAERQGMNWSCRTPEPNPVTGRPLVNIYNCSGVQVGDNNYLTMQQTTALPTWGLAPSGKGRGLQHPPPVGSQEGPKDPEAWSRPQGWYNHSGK

Mus musculus = assay: In vivo anti-inflammatory activity in NNK induced induced C57BL/6J ALI mouse model assessed as lung injury score pretreated at 5 mg/kg, ip for 1 hr followed by NNK administration relative to disease model (reference value: 5.7 +/- 0.5); type: functional

Row | Kd [5] [nM] | Kd [6] [nM] | SMILES | Activity (HT-29 [1]) | EC50 (HT-29 [2]) [nM] | Activity (HT-29 [3]) | CC50 (HT-29 [4]) [nM] | EC50 (HT-29 [3]) [nM] | Activity (Mus musculus)
1 |  |  | CC(C)(C)OC(=O)NC1CCCC(C(=O)Nc2nc3cc(F)c(Oc4ccc(F)c(NC(=O)Cc5cccc(C(F)(F)F)c5)c4)cc3s2)C1 (centres undefined) | Active | 334 | inactive | > 100000 |  | 
2 |  |  | O=C(Cc1cccc(C(F)(F)F)c1)Nc1cc(Oc2cc3sc(NC(=O)C4CCC(NC(=O)OCc5ccccc5)CC4)nc3cc2F)ccc1F (centres undefined) | Active | 945 | inactive | > 100000 |  | 
3 |  |  | CCCC1CCC(C(=O)Nc2nc3cc(F)c(Oc4ccc(F)c(NC(=O)Cc5cccc(C(F)(F)F)c5)c4)cc3s2)CC1 (centres undefined) | Active | > 10000 | inactive | > 100000 |  | 
4 |  |  | O=C(Cc1cccc(C(F)(F)F)c1)Nc1cc(Oc2cc3sc(NC(=O)C4CCC(NS(=O)(=O)c5ccccc5)CC4)nc3cc2F)ccc1F (centres undefined) | Active | 234 | inactive | > 100000 |  | 
5 |  |  | N#Cc1c(Oc2ccc(F)c(NC(=O)Cc3cccc(C(F)(F)F)c3)c2)ccc2nc(NC(=O)C3CC3)sc12 |  |  |  | > 50000 |  | 
6 |  |  | O=C(Cc1cccc(C(F)(F)F)c1)Nc1cc(Oc2cc3sc(NC(=O)C4CCC(O)CC4)nc3cc2F)ccc1F (centres undefined) | Active | 95.6 | inactive | > 100000 |  | 
7 | 15 | > 10000 | CCOCC(=O)NC1CCC(C(=O)Nc2nc3cc(F)c(Oc4ccc(F)c(NC(=O)Cc5cccc(C(F)(F)F)c5)c4)cc3s2)CC1 (centres undefined) | Active | 48.4 | inactive | > 100000 |  | 
8 |  |  | CCCS(=O)(=O)NC1CCC(C(=O)Nc2nc3cc(F)c(Oc4ccc(F)c(NC(=O)Cc5cccc(C(F)(F)F)c5)c4)cc3s2)CC1 (centres undefined) | Active | 119 | inactive | > 100000 |  | 
9 |  |  | O=C1CCC(C(=O)Nc2nc3ccc(Oc4ccc(F)c(NC(=O)Cc5cccc(C(F)(F)F)c5)c4)cc3s2)CC1 |  |  |  | > 50000 | 50 | 
10 |  |  | CC(C)CC(=O)NC1CCC(C(=O)Nc2nc3cc(F)c(Oc4ccc(F)c(NC(=O)Cc5cccc(C(F)(F)F)c5)c4)cc3s2)CC1 (centres undefined) | Active | 47.5 | inactive | > 100000 |  | 
11 | 15 | > 10000 | CC(C)C(=O)NC1CCC(C(=O)Nc2nc3cc(F)c(Oc4ccc(F)c(NC(=O)Cc5cccc(C(F)(F)F)c5)c4)cc3s2)CC1 (centres undefined) | Active | 34.1 | inactive | > 100000 |  | 
12 |  |  | CC(C)(C)OC(=O)NC1CCC(C(=O)Nc2nc3cc(F)c(Oc4ccc(F)c(NC(=O)Cc5cccc(C(F)(F)F)c5)c4)cc3s2)CC1 (centres undefined) | Active | 136 | inactive | > 100000 |  | 
13 |  |  | O=C(Cc1cccc(C(F)(F)F)c1)Nc1cc(Oc2cc3sc(NC(=O)C4CCCC(NC(=O)C5CC5)C4)nc3cc2F)ccc1F (centres undefined) | Active | 71.2 | inactive | > 100000 |  | 
14 | 69 | > 10000 | O=C(Cc1cccc(C(F)(F)F)c1)Nc1cc(Oc2cc3sc(NC(=O)C4CCC(NC(=O)c5cccs5)CC4)nc3cc2F)ccc1F (centres undefined) | Active | 52.9 | inactive | > 100000 |  | 
15 |  |  | CCCC(=O)NC1CCC(C(=O)Nc2nc3cc(F)c(Oc4ccc(F)c(NC(=O)Cc5cccc(C(F)(F)F)c5)c4)cc3s2)CC1 (centres undefined) | Active | 82.7 | inactive | > 100000 |  | 
16 | 15 | > 10000 | COCC(=O)NC1CCC(C(=O)Nc2nc3cc(F)c(Oc4ccc(F)c(NC(=O)Cc5cccc(C(F)(F)F)c5)c4)cc3s2)CC1 (centres undefined) | Active | 44.8 | inactive | > 100000 |  | 
17 |  |  | CCCC1CCC(C2CCC(C(=O)Nc3nc4cc(F)c(Oc5ccc(F)c(NC(=O)Cc6cccc(C(F)(F)F)c6)c5)cc4s3)CC2)CC1 (centres undefined) | Active | > 10000 | inactive | > 100000 |  | 
18 |  |  | O=C(Cc1cccc(C(F)(F)F)c1)Nc1cc(Oc2cc3sc(NC(=O)C4CCC(NC(=O)C5CCCC5)CC4)nc3cc2F)ccc1F (centres undefined) | Active | 72.9 | inactive | > 100000 |  | 
19 |  |  | C[C@@H]1C[C@H]2[C@@H]3CCC4=CC(=O)C=C[C@]4(C)[C@@]3(F)[C@@H](O)C[C@]2(C)[C@@]1(O)C(=O)CO [DEXAMETHASONE] |  |  |  |  |  | 3.7
20 | 43 | > 10000 | O=C(Cc1cccc(C(F)(F)F)c1)Nc1cc(Oc2cc3sc(NC(=O)C4CCC(NC(=O)CCCl)CC4)nc3cc2F)ccc1F (centres undefined) | Active | 50 | inactive | > 100000 |  | 
21 | 45 | > 10000 | CCCCC(=O)NC1CCC(C(=O)Nc2nc3cc(F)c(Oc4ccc(F)c(NC(=O)Cc5cccc(C(F)(F)F)c5)c4)cc3s2)CC1 (centres undefined) | Active | 42.4 | inactive | > 100000 |  | 
22 |  |  | O=C(Cc1cccc(C(F)(F)F)c1)Nc1cc(Oc2cc3sc(NC(=O)C4CCC(NC(=O)c5ccc(F)cc5)CC4)nc3cc2F)ccc1F (centres undefined) | Active | 55.2 | inactive | > 100000 |  | 
23 |  |  | CC(=O)OCC(=O)NC1CCC(C(=O)Nc2nc3cc(F)c(Oc4ccc(F)c(NC(=O)Cc5cccc(C(F)(F)F)c5)c4)cc3s2)CC1 (centres undefined) | Active | 81.8 | inactive | > 100000 |  | 
24 |  |  | O=C(Cc1cccc(C(F)(F)F)c1)Nc1cc(Oc2cc3sc(NC(=O)C4CCC(NC(=O)C5CC5)CC4)nc3cc2F)ccc1F (centres undefined) | Active | 50.5 | inactive | > 100000 |  | 
25 |  |  | CCC(=O)NC1CCC(C(=O)Nc2nc3cc(F)c(Oc4ccc(F)c(NC(=O)Cc5cccc(C(F)(F)F)c5)c4)cc3s2)CC1 (centres undefined) | Active | 83.2 | inactive | > 100000 |  | 
